Test results as given in patent US10301294B2, “Compounds for the treatment of tuberculosis” (priority 2013, dated 2019).
Like-named read-outs stand apart in the source and are kept apart here.

Tests used:
[1] = tested on: replicating M. tuberculosis H37Rv; assay: microbe, parasite or virus in culture; assay type: cell-based; settings: for Against Replicating Mtb, % @ 62: at 62 uM; for Against Replicating Mtb, % @ 125: at 125 uM
[2] = tested on: carbon-starved M. tuberculosis H37Rv; assay: microbe, parasite or virus in culture; assay type: cell-based
TB = assay: MIC of control anti-tuberculosis antibiotics; assay type: cell-based, M. tuberculosis; settings: Mycobacterium tuberculosis
[3] = tested on: carbon-starved M. tuberculosis H37Rv; assay: Non-replicating IC90 determination by luciferase (carbon-starved cells); assay type: cell-based; settings: FIG. 1C; read-out: IC90 for non-replicating starved cells by luciferase assay
[4] = tested on: replicating M. tuberculosis H37Rv; assay type: cell-based; settings: FIG. 1A; read-out: IC90 against replicating, logarithmically growing bacteria measured by OD600 (converted)
[5] = Mycobacterium tuberculosis, H37RV, read-out: Against Replicating Mtb IC90
[6] = Mycobacterium tuberculosis, H37RV, read-out: Against carbon starving non-replicating Mtb IC90

`Fc1cccc(-c2nnc(SCc3ccccn3)o2)c1` [drawing 270] showed an IC90 [1, 5] of 31 µM and an IC90 [2, 6] of under 8 µM.
In the case of `COc1ccc(CSc2nnc(-c3ccc(Cl)cc3)o2)nc1` [drawing 275], the “Against Replicating Mtb, % @ 16 (7 d)” value ([1]; […], at 16 uM, 7 d) is reported as 99.5% @ 16 (7 d) and the “Against carbon starving non-replicating Mtb, % @ 4” value [2] is reported as 99% @ 4.
`COC(=O)CCCOc1ccc(CSc2nnc(-c3ccc(Cl)cc3)o2)nc1` [drawing 276] was tested, and the IC90 [1, 5] was 31 µM and the “Against carbon starving non-replicating Mtb, % @ 8” value [2] was 99% @ 8.
For `[O-][S+](Cc1cn(Cc2ccccc2)nn1)c1nnc(-c2ccc(Cl)cc2)o1` (centres unmarked) [drawing 272], the “Against Replicating Mtb, % @ 62” value ([1]; […]) was 100% @ 62 and the “Against carbon starving non-replicating Mtb, % @ 31” value ([2]; […], at 31 uM) was 100% @ 31.
`Clc1ccc(-c2nnc(SCc3cn(Cc4ccccc4)nn3)o2)cc1` [drawing 273] was tested, and the “Against Replicating Mtb, % @ 125” value ([1]; […]) was 98% @ 125 and the “Against carbon starving non-replicating Mtb, % @ 4” value [2] was 99% @ 4.
For `Fc1ccc(CSc2nnc(-c3ccccc3)o2)cc1` [drawing 259], the IC90 [2, 6] was 62 µM.
For `COc1cccc(-c2nnc(SCc3ccccn3)o2)c1` [drawing 274], the “Against Replicating Mtb, % @ 62” value ([1]; […]) was 99% @ 62 and the “Against carbon starving non-replicating Mtb, % @ 16” value ([2]; […], at 16 uM) was 99% @ 16.
In the case of `NNC(=O)c1ccncc1` [INH, isoniazid], the MIC (TB) is reported as 0.1 µg/mL.
`[N-]=[N+]=NCCOCCNC(=O)CCCOc1ccc(C[S+]([O-])c2nnc(-c3ccc(Cl)cc3)o2)nc1` (centres unmarked) [drawing 278] was tested, and the “Against carbon starving non-replicating Mtb, % @ 8” value [2] was 97% @ 8.
Work on `c1ccc(-c2nnc(SC3CCCCC3)o2)cc1` [drawing 262] yielded an IC90 [2, 6] of 31 µM.
For `Clc1ccc(-c2nnc(SCc3cn(-c4ccccc4)nn3)o2)cc1`, the IC90 [3] was over 62 µM, the IC90 ([1]; FIG. 1B, read-out: IC90 against replicating, logarithmically growing bacteria measured by CFU/mL (converted)) was over 62 µM and the IC90 [4] was over 62 µM. The IC90 ([2]; FIG. 1D, read-out: IC90 against non-replicating, starved cells by CFU/mL) was 1 µM.
In the case of `Brc1cccc(-c2nnc(SCc3ccccn3)o2)c1` [drawing 271], the “Against Replicating Mtb, % @ 62” value ([1]; […]) is reported as 96% @ 62 and the IC90 [2, 6] is reported as under 8 µM.
In the case of `c1ccc(-c2nnc(SCCC3OCCCO3)o2)cc1` [drawing 258], the IC90 [2, 6] is reported as 10 µM.
`c1ccc(-c2nnc(SCc3ccccn3)o2)cc1` [drawing 261] was tested, and the “Against Replicating Mtb, % @ 125” value ([1]; […]) was 99% @ 125 and the IC90 [2, 6] was 4 µM.
With `COCCSc1nnc(-c2ccccc2)o1` [drawing 260] the IC90 [2, 6] was 4 µM.
For `CO[C@H]1/C=C/O[C@@]2(C)Oc3c(C)c(O)c4c(O)c(c(/C=N/N5CCN(C)CC5)c(O)c4c3C2=O)NC(=O)/C(C)=C\C=C\[C@H](C)[C@H](O)[C@@H](C)[C@@H](O)[C@@H](C)[C@H](OC(C)=O)[C@@H]1C` [rifampin], the MIC (TB) was 0.01 µg/mL.
`[O-][S+](Cc1ccccc1)c1nnc(-c2ccccc2)o1` (centres unmarked) [drawing 267] was tested, and the “Against Replicating Mtb, % @ 31” value ([1]; […], at 31 uM) was 100% @ 31 and the IC90 [2, 6] was 4 µM.
In the case of `O=S(=O)(Cc1ccccc1)c1nnc(-c2ccccc2)o1` [drawing 268], the IC90 [2, 6] is reported as 62 µM.
With `Fc1ccc(-c2nnc(SCc3ccccn3)o2)cc1` [drawing 269] the “Against Replicating Mtb, % @ 16” value ([1]; […], at 16 uM) was 98.5% @ 16 and the “Against carbon starving non-replicating Mtb, % @ 4” value [2] was 99% @ 4.
